Measured values reported in patent US8034812B2, “Imidazopyridazine derivative having kinase inhibitory activity and pharmaceutical agent thereof” (Takeda Pharmaceutical Company Limited, priority 2006, dated 2011).

Legend:
BRAF (V600E) enzyme = biological target: T1, BRAF (V600E) enzyme (Homo sapiens, UniProt P15056, V600E); assay: Determination of BRAF (V600E) kinase inhibitory activity ([γ-32P]ATP, GST-MEK1 (K96R) substrate); format: biochemical; conditions: read-out: BRAF (V600E) kinase inhibitory rate
T1 construct: area encoding the BRAF kinase domain region, so that the protein contains an N-terminal Flag; made in house; host or cells: SF-21 insect cells, recombinant baculovirus BAC-V600E
T1 sequence (P15056 457-717 V600E limits assumed): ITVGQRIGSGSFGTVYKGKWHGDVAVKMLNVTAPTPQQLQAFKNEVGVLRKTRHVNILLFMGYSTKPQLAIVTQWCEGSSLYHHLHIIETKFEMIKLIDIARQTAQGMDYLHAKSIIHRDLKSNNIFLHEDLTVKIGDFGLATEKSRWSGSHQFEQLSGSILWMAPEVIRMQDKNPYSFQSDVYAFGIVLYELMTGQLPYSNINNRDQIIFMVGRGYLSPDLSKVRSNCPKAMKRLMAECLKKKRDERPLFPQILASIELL
Procedure: Human BRAF gene was cloned by PCR using human Testis cDNA library (Clontech) as a template. The primer used for PCR was prepared from base sequence (Genbank Accession NM_004333) information of BRAF gene by adding a base sequence encoding flag peptide and a recognition sequence of the restriction enzyme to area encoding the BRAF kinase domain region, so that the protein contains an N-terminal Flag. The primer base sequence is shown below.
The PCR reaction was conducted using Pyrobest (Takara Shuzo Co., Ltd). The obtained PCR product was electrophoresed on agarose gel (1%), the DNA fragment amplified by PCR was recovered from the gel, and then digested with restriction enzymes EcoRI and SalI. The DNA treated with the restriction enzymes was electrophoresed on agarose gel (1%), and the obtained DNA fragment was recovered and ligated to plasmid pFASTBAC1 (Invitrogen) digested with restriction enzymes EcoRI and SalI to give expression plasmid pFB-BRAF, and the base sequence of the insert fragment was confirmed. In addition, mutation was introduced into V600E using a Quick change Site Directed Mutagenesis kit (Stratagene). The nucleotide sequences of the primers used are shown in the following.
SF-21 cells were sown at 1×10^6 cells/mL to Sf-900II SFM medium (1 L, Invitrogen) containing 10% fetal bovine serum (Trace), 50 mg/L Gentamicin (Invitrogen) and 0.1% Pluronic F-68 (Invitrogen), and shaking culture was performed using a 2 L volume Erlenmeyer flask at 27° C., 100 rpm. After culturing for 24 hrs, recombinant baculovirus BAC-V600E (13.4 mL) was added to the mixture, and the mixture was further cultured for 3 days. The culture medium was centrifuged at 2,000 rpm for 5 min to give virus-infected cells. The infected cells were washed with a phosphate buffered saline (Invitrogen), centrifuged under the same conditions, and the cells were preserved at −80° C. The cryopreserved cells were thawed in ice, suspended in buffer A (50 mM Tris buffer (30 mL, pH 7.4) containing 20% glycerol, 0.15 M NaCl) supplemented with Complete Protease Inhibitor (Boehringer), and ruptured 3 times with a Polytron homogenizer (Kinematica) at 20,000 rpm for 30 sec. The ruptured medium was clarified by centrifugation at 40,000 rpm for 30 min and filtered with a 0.45 μm filter. The filtrate was passed through a column packed with Anti-FLAG M2 Affinity Gel (4 mL, Sigma) at a flow rate of about 0.5 mL/min. The column was washed with buffer A, and eluted with buffer A containing 100 μg/mL of FLAG peptide. The buffer of this concentrate was exchanged using NAP25 column (Amersham Bioscience) equilibrated with buffer A and the fractions were cryopreserved at −80° C.
A test compound (2.5 μl) dissolved in dimethyl sulfoxide (DMSO) was added to 37.5 μl of a reaction solution (25 mM HEPES (pH 7.5), 10 mM magnesium acetate, 1 mM dithiothreitol) containing BRAF (V600E) enzyme (30 ng) and recombinant type protein GST-MEK1 (K96R) 250 ng, and the mixture was incubated at room temperature for 10 min. ATP solution (10 μl) (2.5 μM ATP, 0.1 μCi [γ-^32P]ATP) was added to the obtained mixture, and the mixture was reacted at room temperature for 20 min. The reaction was quenched by adding 50 μL of ice-cooled 20% trichloroacetic acid (Wako Pure Chemical Industries, Ltd.). The reaction solution was allowed to stand at 4° C. for 30 min, and the acid-precipitable fraction was transferred to GF/C filter plate (Millipore Corporation) using cell harvester (PerkinElmer). The plate was dried at 45° C. for 60 min, and 40 μL of MicroScinti 0 (PerkinElmer) was added thereto. The radioactivity was measured using TopCount (PerkinElmer). The kinase inhibitory rate (%) of the test compound was calculated by the following formula: Inhibitory rate(%)=(1−(count of test compound−blank)÷(control−blank))×100
The count of the solution reacted without addition of the compound was used as a “control”, and the count of the solution without the compound and enzyme was used as a “blank”. […]

[1] = system: Human umbilical vein-derived vascular endothelial cells (HUVEC); assay: Vascular endothelial cell growth inhibitory test (VEGF-stimulated HUVEC, XTT); format: cell-based; conditions: 120 h, 5 days of culture
Procedure: To be specific, HUVEC was suspended in a vascular endothelial cell medium containing the aforementioned 5% bovine fetal serum and plated on a 96 well flat bottom plate by 50 μL (3000 cells) each well. After culture overnight, various concentrations of the test substance and 120 ng/mL of vascular endothelial growth factor (VEGF) were dissolved in a vascular endothelial cell medium containing 5% bovine fetal serum and added to each well by 50 μL. After 5 days of culture, a XTT reagent (Wako Pure Chemical Industries, Ltd.) was added to each well by 10 μL, and the mixture was reacted in an incubator at 37° C., 5% carbon dioxide for 2-3 hr. The absorbance at 450 nm was measured by a microtiter plate reader and the cell growth inhibitory activity was determined.

[2] = biological target: T2, PDGFRβ intracellular domain protein (Homo sapiens, UniProt P09619); assay: Determination of platelet-derived growth factor receptor β (PDGFRβ) kinase inhibitory activity (AlphaScreen); format: biochemical
T2 construct: 125 ng/ml of PDGFRβ intracellular domain protein (UPSTATE); purchased UPSTATE
T2 sequence (P09619 554-1106 limits assumed): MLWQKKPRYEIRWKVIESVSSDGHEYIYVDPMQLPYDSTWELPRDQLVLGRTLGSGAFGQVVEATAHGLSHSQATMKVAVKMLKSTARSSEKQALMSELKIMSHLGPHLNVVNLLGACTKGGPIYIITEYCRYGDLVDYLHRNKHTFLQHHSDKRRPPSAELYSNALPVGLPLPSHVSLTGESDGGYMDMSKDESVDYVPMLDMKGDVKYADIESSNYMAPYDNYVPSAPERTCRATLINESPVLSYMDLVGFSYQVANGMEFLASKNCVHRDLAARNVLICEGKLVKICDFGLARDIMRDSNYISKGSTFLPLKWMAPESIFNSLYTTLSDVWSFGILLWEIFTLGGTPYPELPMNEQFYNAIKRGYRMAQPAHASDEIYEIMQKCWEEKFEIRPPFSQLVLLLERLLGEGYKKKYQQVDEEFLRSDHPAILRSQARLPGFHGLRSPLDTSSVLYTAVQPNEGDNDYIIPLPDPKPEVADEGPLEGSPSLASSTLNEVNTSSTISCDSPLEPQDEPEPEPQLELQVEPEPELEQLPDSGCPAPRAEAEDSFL
Procedure: (§1) A test compound dissolved in dimethyl sulfoxide (DMSO) was diluted with a buffer (50 mM Tris-HCl (pH 7.5), 5 mM MgCl2, 5 mM MnCl2, 2 mM dithiothreitol, 0.01% Tween-20). To this compound solution (5 μL) was added a buffer (10 μL) containing 125 ng/ml of PDGFRβ intracellular domain protein (UPSTATE) and 250 ng/mL of biotin labeled polypeptide biotinyl-poly-Glu:Tyr (4:1) (CIS bio International). At 5 min after mixing kinase enzyme and the compound and biotin labeled polypeptide, to the obtained mixture was added a buffer (10 μL) containing ATP (25 μM), the mixture was allowed to react at 25° C. for 30 min and the reaction was quenched with 25 μL of a stop solution (100 mM EDTA disodium salt, 62.5 mM HEPES buffer (pH 7.4), 250 mM NaCl, 0.1% bovine serum albumin, 10 μg/mL AlphaScreen assay streptavidin donor beads (Streptavidin Donor Beads: PerkinElmer), 10 μg/mL AlphaScreen assay anti-phosphotyrosine recognition antibody PT-66 binding acceptor beads (Anti-phosphotyrosine (P-Tyr-66) Acceptor beads: PerkinElmer)). The reaction solution was allowed to stand at 25° C. for 16 hrs, and the wells were counted using a plate reader Fusion™ (PerkinElmer). The kinase inhibitory rate (%) of the test compound was calculated by the following formula: Inhibitory rate(%)=(1−(count of test compound=blank)÷(control−blank))×100
(§2) The count of the solution reacted without addition of the compound was used as a “control”, and the count of the solution without the compound and ATP was used as a “blank”.

[3] = biological target: T3, PDGFRα intracellular domain protein (Homo sapiens, UniProt P16234); assay: Determination of platelet-derived growth factor receptor α (PDGFRα) kinase inhibitory activity (AlphaScreen); format: biochemical
T3 construct: 125 ng/ml of PDGFRα intracellular domain protein (UPSTATE); purchased UPSTATE
T3 sequence (P16234 550-1089 limits assumed): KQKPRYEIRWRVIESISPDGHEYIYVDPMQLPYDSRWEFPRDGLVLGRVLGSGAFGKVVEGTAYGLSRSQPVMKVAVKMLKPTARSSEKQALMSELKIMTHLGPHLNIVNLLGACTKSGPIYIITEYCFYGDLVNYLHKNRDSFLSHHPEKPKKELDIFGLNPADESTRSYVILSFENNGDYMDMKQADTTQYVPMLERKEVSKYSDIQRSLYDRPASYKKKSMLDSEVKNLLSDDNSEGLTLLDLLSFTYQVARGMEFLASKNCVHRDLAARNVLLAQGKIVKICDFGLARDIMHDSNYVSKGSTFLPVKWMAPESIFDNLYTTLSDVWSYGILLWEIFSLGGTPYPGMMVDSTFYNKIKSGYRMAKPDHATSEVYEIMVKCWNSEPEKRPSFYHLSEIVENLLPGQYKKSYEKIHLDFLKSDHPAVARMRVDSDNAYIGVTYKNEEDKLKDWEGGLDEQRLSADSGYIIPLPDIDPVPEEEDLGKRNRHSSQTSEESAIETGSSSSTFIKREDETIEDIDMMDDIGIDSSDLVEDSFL
Procedure: as §1, with “PDGFRα” for “PDGFRβ”, “beads:” for “Beads:”, “compound−blank)÷(control−blank))×100” for “compound=blank)÷(control−blank))×100”
as §2

[4] = biological target: T4, VEGFR2 intracellular domain protein (Homo sapiens, UniProt P35968); assay: Determination of vascular endothelial growth factor receptor 2 (VEGFR2) kinase inhibitory activity (AlphaScreen); format: biochemical; conditions: read-out: VEGFR2 kinase inhibitory rate
T4 construct: made in house; host or cells: SF-21 insect cells, recombinant baculovirus BAC-VEGFR2
T4 sequence (P35968 786-1356 limits assumed): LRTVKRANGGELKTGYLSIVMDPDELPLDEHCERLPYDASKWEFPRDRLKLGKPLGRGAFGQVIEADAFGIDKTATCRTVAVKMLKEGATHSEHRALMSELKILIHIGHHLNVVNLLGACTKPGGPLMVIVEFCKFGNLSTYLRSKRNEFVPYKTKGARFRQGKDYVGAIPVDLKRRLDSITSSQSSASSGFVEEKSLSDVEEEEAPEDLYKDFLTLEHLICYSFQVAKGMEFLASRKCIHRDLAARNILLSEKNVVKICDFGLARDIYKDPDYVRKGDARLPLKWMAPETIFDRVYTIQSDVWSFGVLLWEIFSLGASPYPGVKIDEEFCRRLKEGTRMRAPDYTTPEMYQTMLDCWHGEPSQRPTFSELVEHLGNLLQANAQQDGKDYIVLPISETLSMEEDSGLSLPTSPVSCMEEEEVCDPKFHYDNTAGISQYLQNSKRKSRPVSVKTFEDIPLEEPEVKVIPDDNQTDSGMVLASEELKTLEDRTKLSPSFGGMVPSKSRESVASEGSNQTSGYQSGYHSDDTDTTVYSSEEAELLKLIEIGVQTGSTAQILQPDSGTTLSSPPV
Procedure: Human vascular endothelial growth factor receptor 2 (hereinafter to be referred to as VEGFR2) gene was cloned by PCR using cDNA Libraries Human Placenta (Clontech) as a template. The primer used for PCR was prepared from base sequence (Genbank Accession AF035121) information of VEGFR2 gene by adding a base sequence encoding flag peptide and a recognition sequence of the restriction enzyme to a base sequence (2671-4374 of Genbank Accession AF035121) encoding the VEGFR2 intracellular domain region, so that the protein contains an N-terminal Flag tag. The primer base sequence is shown below.
SF-21 cells were sown at 1×10^6 cells/mL to Sf-900II SFM medium (1 L, Invitrogen) containing 10% fetal bovine serum (trace), 50 mg/L Gentamicin (Invitrogen) and 0.1% Pluronic F-68 (Invitrogen), and shaking culture was performed using a 2 L volume Erlenmeyer flask at 27° C., 100 rpm. After culturing for 24 hrs, recombinant baculovirus BAC-VEGFR2 (13.4 mL) was added to the mixture, and the mixture was further cultured for 3 days. The culture medium was centrifuged at 2,000 rpm for 5 min to give virus-infected cells. The infected cells were washed with a phosphate buffered saline (Invitrogen), centrifuged under the same conditions, and the cells were preserved at −80° C. The cryopreserved cells were thawed in ice, suspended in buffer A (50 mM Tris buffer (30 mL, pH 7.4) containing 20% glycerol, 0.15 M NaCl) supplemented with Complete Protease Inhibitor (Boehringer), and ruptured 3 times with a Polytron homogenizer (Kinematica) at 20,000 rpm for 30 sec. The ruptured medium was clarified by centrifugation at 40,000 rpm for 30 min and filtered with a 0.45 μm filter. The filtrate was passed through a column packed with Anti-FLAG M2 Affinity Gel (4 mL, Sigma) at a flow rate of about 0.5 mL/min. The column was washed with buffer A, and eluted with buffer A containing 100 μg/mL of FLAG peptide. The eluate was concentrated with Vivaspin 20 (Vivascience) having a molecular weight cut off of 30K. The buffer of this concentrate was exchanged using NAP™ 25 column (Amersham Bioscience) equilibrated with buffer A. The fractions containing intracellular domain protein of VEGFR2 were collected, glycerol was added to the final concentration of 50% and cryopreserved at −80° C.
A test compound dissolved in dimethyl sulfoxide (DMSO) was diluted with a buffer (50 mM Tris-HCl (pH 7.5), 5 mM MgCl2, 5 mM MnCl2, 2 mM dithiothreitol, 0.01% Tween-20). To this compound solution (5 μL) was added a buffer (10 μL) containing 50 ng/mL of VEGFR2 intracellular domain protein and 250 ng/mL of biotin labeled polypeptide biotinyl-poly-Glu:Tyr (4:1) (CIS bio International). To the obtained mixture was added a buffer (10 μL) containing ATP (25 μM), the mixture was allowed to react at 25° C. for 5 min and the reaction was quenched with 25 μL of a stop solution (100 mM EDTA disodium salt, 62.5 mM HEPES buffer (pH 7.4), 250 mM NaCl, 0.1% bovine serum albumin, 10 μg/mL AlphaScreen assay streptavidin donor beads (Streptavidin Donor beads: PerkinElmer), 10 μg/mL AlphaScreen assay anti-phosphotyrosine recognition antibody PY-100 binding acceptor beads (Anti-phosphotyrosine (P-Tyr-100) Acceptor beads: PerkinElmer)). The reaction solution was allowed to stand at 25° C. for 16 hrs, and the wells were counted using a plate reader Fusion™ (PerkinElmer). The kinase inhibitory rate (%) of the test compound was calculated by the following formula: Inhibitory rate(%)=(1−(count of test compound−blank)÷(control−blank))×100

SMILES | inhibition at 1 µM (BRAF (V600E) enzyme) | IC50 [2] | IC50 [3] | inhibition at 1 µM [4] | IC50 [1]
Cc1nc(C)c(C(=O)Nc2cc(Oc3ccc4nc(NC(=O)C5CC5)cn4n3)ccc2F)s1 [Example 267, N-[5-({2-[(cyclopropylcarbonyl)amino]imidazo[1,2-b]pyridazin-6-yl}oxy)-2-fluorophenyl]-2,4-dimethyl-1,3-thiazole-5-carboxamide] |  | ≤ 500 nM | ≤ 500 nM | ≥ 90% | ≤ 500 nM
COc1cc(C(=O)Nc2cc(Oc3ccc4nc(NC(=O)C5CC5)cn4n3)ccc2F)n(C)n1 [Example 180, N-[5-({2-[(cyclopropylcarbonyl)amino]imidazo[1,2-b]pyridazin-6-yl}oxy)-2-fluorophenyl]-3-methoxy-1-methyl-1H-pyrazole-5-carboxamide] |  | ≤ 500 nM | ≤ 500 nM | ≥ 90% | ≤ 500 nM

Now from value to compound, other results behind:

inhibition at 1 µM (BRAF (V600E) enzyme) | IC50 [2] | IC50 [3] | inhibition at 1 µM [4] | SMILES | IC50 [1]
≥ 90% |  |  |  | O=C(Nc1cccc(Sc2ccc3nc(NC(=O)C4CC4)cn3n2)c1)c1cccc(C(F)(F)F)c1 [Example 427, N-[3-({2-[(cyclopropylcarbonyl)amino]imidazo[1,2-b]pyridazin-6-yl}thio)phenyl]-3-(trifluoromethyl)benzamide] | 
≥ 90% |  |  |  | CN(C)CC(=O)Nc1cn2nc(Oc3cccc(NC(=O)c4cccc(C(F)(F)F)c4)c3)ccc2n1 [Example 398, N-[3-({2-[(N,N-dimethylglycyl)amino]imidazo[1,2-b]pyridazin-6-yl}oxy)phenyl]-3-(trifluoromethyl)benzamide] | 
 | ≤ 500 nM | ≤ 500 nM | ≥ 90% | Cc1nc(C)c(C(=O)Nc2cc(Oc3ccc4nc(NC(=O)C5CC5)cn4n3)ccc2F)o1 [Example 289, N-[5-({2-[(cyclopropylcarbonyl)amino]imidazo[1,2-b]pyridazin-6-yl}oxy)-2-fluorophenyl]-2,4-dimethyl-1,3-oxazole-5-carboxamide] | ≤ 500 nM
